Data as given in patent US4971965A, “Antibiotics TAN-1057” (Takeda Chemical Industries, Ltd., priority 1988, dated 1990).
Values after ≈ are worked out from the molar mass of the structure shown. Where two headings read alike, the source gives them in different places.

Assays:
[1] = system: Bacteroides fladilis ATCC 2509; test: MIC against anaerobic bacteria (Table 3); type: cell-based; details: ATCC2509, 10^6 CFU/ml, GAM medium, Gas Pack, 37° C., 18 hours
[2] = system: Peptostreptococcus anaerobium B-40; test: MIC against anaerobic bacteria (Table 3); type: cell-based; details: B40, 10^6 CFU/ml, GAM medium, Gas Pack, 37° C., 18 hours
[3] = system: Pseudomonas aeruginosa IFO 3080; type: cell-based; details: IFO3080, agar dilution, DY medium, pH unadjusted, approx. 10^6 CFU/ml, read-out: Minimum Inhibitory Conc. (MIC)
Method: (§1) (Note 1) Measurement was conducted by employing a medium consisting of DY
(§2) medium [Bacto Antibiotic Medium 3 (Difco Laboratories, USA)(17.5 g), Bact
(§3) yeast extract(Difco Laboratories, USA)(5.0 g) and distilled water(pH
(§4) unadjusted)(1000 ml)], using approximately 10^6 colony forming unit/m
(§5) of inoculum, by means of the agar dilution method.

[4] = system: Bacillus megaterium IFO 12108; type: cell-based; details: Priestia megaterium, IFO12108, read-out: Minimum Inhibitory Conc. (MIC)
Method: as §1, §2, §3, §4, §5

Aeromonas caviae NCW = type: cell-based; details: read-out: Minimum Inhibitory Conc. (MIC)
Method: as §1, §2, §3, §4, §5

[5] = system: Staphylococcus epidermidis IFO 3762; type: cell-based; details: IFO3762, agar dilution, DY medium, pH unadjusted, approx. 10^6 CFU/ml, read-out: Minimum Inhibitory Conc. (MIC)
Method: as §1, §2, §3, §4, §5

Escherichia coli LD-2 = type: cell-based; details: LD2, read-out: Minimum Inhibitory Conc. (MIC)
Method: as §1, §2, §3, §4, §5

[6] = system: Micrococcus luteus IFO 12708; type: cell-based; details: IFO12708, read-out: Minimum Inhibitory Conc. (MIC)
Method: as §1, §2, §3, §4, §5

[7] = system: Staphylococcus aureus FDA 209P; type: cell-based; details: FDA209P, read-out: Minimum Inhibitory Conc. (MIC)
Method: as §1, §2, §3, §4, §5

[8] = system: Proteus vulgaris IFO 3988; type: cell-based; details: IFO3988, agar dilution, DY medium, pH unadjusted, approx. 10^6 CFU/ml, read-out: Minimum Inhibitory Conc. (MIC)
Method: as §1, §2, §3, §4, §5

[9] = system: Streptococcus faecalis IFO 3989; type: cell-based; details: Enterococcus faecalis, IFO3989, read-out: Minimum Inhibitory Conc. (MIC)
Method: as §1, §2, §3, §4, §5

[10] = system: Bacillus subtilis NIHJ PCI 219; type: cell-based; details: read-out: Minimum Inhibitory Conc. (MIC)
Method: as §1, §2, §3, §4, §5

[11] = system: Escherichia coli NIHJ JC 2; type: cell-based; details: NIHJJC2, agar dilution, DY medium, pH unadjusted, approx. 10^6 CFU/ml, read-out: Minimum Inhibitory Conc. (MIC)
Method: as §1, §2, §3, §4, §5

Bacillus cereus FDA 5 = type: cell-based; details: FDA5, agar dilution, DY medium, pH unadjusted, approx. 10^6 CFU/ml, read-out: Minimum Inhibitory Conc. (MIC)
Method: as §1, §2, §3, §4, §5

[12] = system: Klebsiella pnemoniae IFO 3317; type: cell-based; details: IFO3317, agar dilution, DY medium, pH unadjusted, approx. 10^6 CFU/ml, read-out: Minimum Inhibitory Conc. (MIC)
Method: as §1, §2, §3, §4, §5

[13] = system: Acinetobacter calcoaceticus IFO 12552; type: cell-based; details: IFO12552, agar dilution, DY medium, pH unadjusted, approx. 10^6 CFU/ml, read-out: Minimum Inhibitory Conc. (MIC)
Method: as §1, §2, §3, §4, §5

[14] = system: Salmonella typhimurium IFO 12529; type: cell-based; details: Salmonella enterica; agar dilution; DY medium, pH unadjusted; approx. 10^6 CFU/ml; read-out: Minimum Inhibitory Conc. (MIC)
Method: as §1, §2, §3, §4, §5

[15] = system: Bacteroides thermophilis PNA-1-24; test: MIC against anaerobic bacteria (Table 3); type: cell-based; details: PNA124, 10^6 CFU/ml, GAM medium, Gas Pack, 37° C., 18 hours
[16] = system: Staphylococcus aureus 308A-1; test: Therapeutic effect on infectious disease in mice (Table 5); type: in vivo
[17] = system: Pseudomonas aeruginosa PAO-8; test: Antibacterial activity (broth dilution MIC, Table 1); type: cell-based
Method: (§6) The biological activities of TAN-1057 are described as follows.
(§7) (Note 1) Measurement was conducted by employing a medium consisting of
(§8) Bacto Antibiotic Medium 3 (Difco Laboratories, USA)(17.5 g), Bacto yeast
(§9) extract(Difco Laboratories, USA)(5.0 g) and distilled water(pH
(§10) […])(1000 ml), using approximately 10^5 colony forming unit/ml
(§11) of inoculum, by means of the broth dilution method.

[18] = system: Pseudomonas aeruginosa IFO 3080; test: as above; type: cell-based
Method: as §6, §7, §8, §9, §10, §11

[19] = system: Bacillus subtilis NIHJ PCI 219; test: as above; type: cell-based
Method: as §6, §7, §8, §9, §10, §11

[20] = system: Acinetobacter calcoaceticus IFO 12552; test: as above; type: cell-based
Method: as §6, §7, §8, §9, §10, §11

[21] = system: Mycoplasma garisepticum S6; test: MIC against Mycoplasma (Table 3); type: cell-based; details: S6, 120 h, 10^6 CFU/ml, Hayflick medium, 37° C., 5 days
Source text: | Inoculum size: 10^6 CFU/ml

[22] = Conversion in aqueous solution; type: physicochemical; details: room temperature
Source text: For example, in case that the mixture of TAN-1057A and B is isolated as crystals of the sulfate, the ratio of TAN-1057A and B is about 6 to 8:4 to 2.
The term "Antibiotics TAN-1057" in the present specification includes also a mixture which contains TAN-1057A, B, C and D in an optional combination and an optional ratio thereof.

[23] = system: Clostridium perfringens PB6K; test: microbe, parasite or virus in culture; type: cell-based; details: 18 h

Question: Which MIC [1] does the source give for CN(C(=O)C[C@@H](N)CCCNC(=N)N)[C@H]1CNC(NC(N)=O)=NC1=O [TAN-1057A] here?
Answer: The MIC was 50 µg/mL (≈ 141 µM).

Question: What about the MIC [2] of the same compound?
Answer: Its MIC is 25 µg/mL (≈ 70.3 µM).

Question: What about the MIC [3] of the same compound?
Answer: Its MIC is over 100 µg/mL.

Question: And the MIC [4]?
Answer: The MIC was 12.5 µg/mL (≈ 35.2 µM).

Question: What about the MIC (Aeromonas caviae NCW) of the same compound?
Answer: The MIC was 12.5 µg/mL (≈ 35.2 µM).

Question: And the MIC [5]?
Answer: The MIC was 0.78 µg/mL (≈ 2.19 µM).

Question: What about the MIC (Escherichia coli LD-2) of the same compound?
Answer: The MIC was 12.5 µg/mL (≈ 35.2 µM).

Question: What about the MIC [6] of the same compound?
Answer: Its MIC is 3.13 µg/mL (≈ 8.81 µM).

Question: What about the MIC [7] of the same compound?
Answer: Its MIC is 6.25 µg/mL (≈ 17.6 µM).

Question: And the MIC [8]?
Answer: Its MIC is over 100 µg/mL.

Question: And the MIC [9]?
Answer: The MIC was 12.5 µg/mL (≈ 35.2 µM).

Question: And the MIC [10]?
Answer: The MIC was 12.5 µg/mL (≈ 35.2 µM).

Question: And the MIC [11]?
Answer: The MIC was over 100 µg/mL.

Question: What about the MIC (Bacillus cereus FDA 5) of the same compound?
Answer: Its MIC is 25 µg/mL (≈ 70.3 µM).

Question: And the MIC [12]?
Answer: Its MIC is over 100 µg/mL.

Question: And the MIC [13]?
Answer: The MIC was 50 µg/mL (≈ 141 µM).

Question: What about the MIC [14] of the same compound?
Answer: The MIC was 100 µg/mL (≈ 281 µM).

Question: What about the MIC [15] of the same compound?
Answer: Its MIC is 0.78 µg/mL (≈ 2.19 µM).

Question: What about the ED50 ([16]; 308A1, ip infection, Oral) of the same compound?
Answer: The ED50 was about 1 mg/kg.

Question: What about the ED50 ([16]; 308A1, sc, ip infection, Subcutaneous) of the same compound?
Answer: Its ED50 is about 0.1 mg/kg.

Question: And the MIC ([17]; PAO8, pH 5, read-out: Minimum Inhibitory Conc. (MIC))?
Answer: The MIC was 100 µg/mL (≈ 281 µM).

Question: And the MIC ([17]; PAO8, pH 7, read-out: Minimum Inhibitory Conc. (MIC))?
Answer: Its MIC is over 100 µg/mL.

Question: What about the MIC ([17]; PAO8, pH 9, read-out: Minimum Inhibitory Conc. (MIC)) of the same compound?
Answer: The MIC was 100 µg/mL (≈ 281 µM).

Question: And the MIC ([18]; IFO3080, pH 5, read-out: Minimum Inhibitory Conc. (MIC))?
Answer: Its MIC is over 100 µg/mL.

Question: And the MIC ([18]; IFO3080, pH 7, read-out: Minimum Inhibitory Conc. (MIC))?
Answer: The MIC was over 100 µg/mL.

Question: And the MIC ([18]; IFO3080, pH 9, read-out: Minimum Inhibitory Conc. (MIC))?
Answer: Its MIC is 100 µg/mL (≈ 281 µM).

Question: And the MIC ([19]; pH 5, broth dilution, read-out: Minimum Inhibitory Conc. (MIC))?
Answer: The MIC was 50 µg/mL (≈ 141 µM).

Question: And the MIC ([19]; pH 7, read-out: Minimum Inhibitory Conc. (MIC))?
Answer: The MIC was 12.5 µg/mL (≈ 35.2 µM).

Question: What about the MIC ([19]; pH 9, broth dilution, read-out: Minimum Inhibitory Conc. (MIC)) of the same compound?
Answer: Its MIC is 1.56 µg/mL (≈ 4.39 µM).

Question: And the MIC ([20]; IFO12552, pH 5, read-out: Minimum Inhibitory Conc. (MIC))?
Answer: The MIC was 12.5 µg/mL (≈ 35.2 µM).

Question: And the MIC ([20]; IFO12552, pH 7, read-out: Minimum Inhibitory Conc. (MIC))?
Answer: The MIC was 6.25 µg/mL (≈ 17.6 µM).

Question: And the MIC ([20]; IFO12552, pH 9, broth dilution, read-out: Minimum Inhibitory Conc. (MIC))?
Answer: Its MIC is 1.56 µg/mL (≈ 4.39 µM).

Question: What about the MIC [21] of the same compound?
Answer: Its MIC is 3.13 µg/mL (≈ 8.81 µM).

Question: What about the “conversion of TAN-1057A and B into each other” value [22] of the same compound?
Answer: Its value is “converted easily each other”.

Question: And the MIC [23]?
Answer: The MIC was 12.5 µg/mL (≈ 35.2 µM).
